Entries after “also recorded” stand apart in the source; their conditions may differ.

Consider three molecules from patent US8618147B2, “Modified macrophage migration inhibitory factor inhibitors” (The Feinstein Institute for Medical Research, priority 2006, dated 2013).

For test [1] the following is noted: versus 40% control; cited from earlier work.
The test system of test [2] is rheumatoid arthritis fibroblast-like synoviocytes (RA-FLS). Briefly: Cell invasion through Matrigel Invasion Chambers. Type of test: cell-based. The settings on record: 100 nM ISO-63 or 25 μM ISO-1, one day treatment, 24 hours incubation. Here is the method: Invasion was assayed by measuring cell invasion through Matrigel Invasion Chambers (Becton Dickinson, Mass.). […] 500 μl of whole medium containing 10% FBS and 10% human serum and was added to the bottom chamber. After 24 hours of incubation at 37° C., cells on the upper surface of the filter were wiped off with a Q-tip and the filter was fixed in 4% formaldehyde/PBS. After staining with crystal violet, migrated cells were counted using an inverted microscope.

The test system of test [3] is leukocyte recruitment. Briefly: Air pouch carrageenan model of acute inflammation, leukocyte recruitment. The settings on record: 40 mg/kg single i.p., 15 min before 1% carrageenan into air pouch, 5 hr after carrageenan. Type of test: in vivo, Swiss Webster male mice. On the procedure: Air pouches were made according to standard procedures (Garcia-Ramallo et al., 2002) on Swiss Webster male mice (25-30 g) by injecting sterile air s.c. on day 0 (6 ml) and day 3 (3 ml). […] After 15 min, the animals were challenged by injecting 1 ml 1% carrageenan (in PBS) into the air pouch cavity. Five hr after carrageenan injection the animals were sacrificed, the pouches washed with PBS, exudate collected, and the total number of infiltrating cells quantitated.

Test [4] deals with MIF (Homo sapiens (Human), UniProt P14174). Briefly: MIF dopachrome tautomerase assay. Type of test: biochemical. The settings on record: (S)-isomer relative to (R)-isomer.
MIF, sequence (P14174 2-115): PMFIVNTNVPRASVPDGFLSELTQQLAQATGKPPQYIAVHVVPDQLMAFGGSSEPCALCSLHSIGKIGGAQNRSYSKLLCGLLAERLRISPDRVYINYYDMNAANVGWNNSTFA
Experimental: MIF tautomerase activity was measured by UV-Visible recording spectrophotometry (SHIMADZU, UV1600U). A fresh stock solution of L-dopachrome methyl ester was prepared at 2.4 mM through oxidation of L-3,4-dihydroxyphenylalanine methyl ester with sodium periodate. 1 μL of MIF solution (800-900 ng/mL) and 1 μL of a DMSO solution with various concentrations of the enzymatic inhibitor were added into a plastic cuvette (10 mm, 1.5 mL) containing 0.7 mL assay buffer (50 mM potassium phosphate, pH 7.2). Then L-dopachrome methyl ester solution (0.3 mL) was added to the assay buffer mixture. Activity was determined at room temperature and the spectrometric measurements were made at λ=475 nm for 20 seconds by monitoring the rate of decolorization of L-dopachrome methyl ester in comparison to a standard solution.

With `COC(=O)C[C@@H]1CC(c2ccc(O)cc2)=NO1` (racemic) [ISO-1, (S,R)-3-(4-hydroxyphenyl)-4,5-dihydro-5-isoxazole acetic acid methyl ester, reference compound], the “protection in sepsis model” value in test [1] is 80%. On to `CC(C)C(OC(=O)CC1CC(c2ccc(O)c(F)c2)=NO1)C(C)C` (stereo not shown) [ISO-63], for which, in test [2], the “invasion of RA-FLS into Matrigel (migrated cells)” value is listed as “inhibits the invasion; also recorded: reduced cell invasion to a much greater extent than the ISO-1 treatment”. Moreover, in test [3], the “leukocyte recruitment (total number of infiltrating cells)” value is recorded as “inhibits leukocyte recruitment; also recorded: caused a significant reduction in leukocyte recruitment”. As to `COC(=O)C[C@@H]1CC(c2ccc(O)cc2)=NO1` [(S)-ISO-1], the “less active than the (R)-isomer” value in test [4] was found to be 50%.
